The record followed here is ChEMBL document CHEMBL1201862, “PubChem BioAssay data set” (2004).

Active and inactive are the calls of the source.

Assay [1] can be described thus: HEp-2 cell cytotoxicity, dose response, cytotoxicity control for RSV inhibitor project, HTS (AID 2410). Format: functional. The following applies: human respiratory syncytial virus.
The next assay deals with Vero. As to the kind of experiment: Vero cell cytotoxicity, cytotoxicity control for flavivirus capping enzyme inhibitors (AID 588742). It counts as functional. The following applies: Chlorocebus sabaeus.
Another assay concerns HEK293. Put plainly: cells. The note with it: Homo sapiens. Format: functional, cell-based.
Assay [2] has as its target T1, Nuclear receptor subfamily 0 group B member 1 (Homo sapiens, UniProt P51843).
T1 sequence (P51843 whole entry): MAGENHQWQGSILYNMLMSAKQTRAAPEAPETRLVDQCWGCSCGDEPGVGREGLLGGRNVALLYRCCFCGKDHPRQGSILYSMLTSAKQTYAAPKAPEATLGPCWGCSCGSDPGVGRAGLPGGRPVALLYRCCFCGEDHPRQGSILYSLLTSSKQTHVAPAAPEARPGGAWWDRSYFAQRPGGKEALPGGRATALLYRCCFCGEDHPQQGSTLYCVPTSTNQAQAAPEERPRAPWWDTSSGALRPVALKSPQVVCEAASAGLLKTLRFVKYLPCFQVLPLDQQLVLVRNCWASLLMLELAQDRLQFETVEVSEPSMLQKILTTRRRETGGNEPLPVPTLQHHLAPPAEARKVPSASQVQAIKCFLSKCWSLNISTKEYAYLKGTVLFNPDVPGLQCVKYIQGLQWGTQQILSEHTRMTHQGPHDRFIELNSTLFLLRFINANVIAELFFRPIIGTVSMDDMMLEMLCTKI
Put plainly: Luminescence-based cell-based high throughput dose response assay for inhibitors of the orphan nuclear receptor subfamily 0, group B, member 1 (DAX1; NR0B1). [Related pubchem assays (depositor defined):AID504766, AID504790]. Format: functional.

Assay [3] can be described thus: NIH-3T3 fibroblast cytotoxicity, dose response, cytotoxicity control, cell-based, fluorescence, Alamar Blue, secondary assay (AID 2327).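 Further: NIH-3T3 mouse fibroblasts cultured with fluconazole at 8 µg/mL.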 It counts as functional.
Assay [4] in a line: C. albicans growth with fluconazole, confirmation, fluorescence, retest (AID 2467). Format: functional, cell-based.
Assay [5] has as its target T2, Serine/threonine-protein phosphatase (Candida dubliniensis (strain CD36 / CBS 7987 / NCPF 3949 / NRRLY-17841) (Yeast), UniProt B9W6M3).
T2 sequence (B9W6M3 whole entry): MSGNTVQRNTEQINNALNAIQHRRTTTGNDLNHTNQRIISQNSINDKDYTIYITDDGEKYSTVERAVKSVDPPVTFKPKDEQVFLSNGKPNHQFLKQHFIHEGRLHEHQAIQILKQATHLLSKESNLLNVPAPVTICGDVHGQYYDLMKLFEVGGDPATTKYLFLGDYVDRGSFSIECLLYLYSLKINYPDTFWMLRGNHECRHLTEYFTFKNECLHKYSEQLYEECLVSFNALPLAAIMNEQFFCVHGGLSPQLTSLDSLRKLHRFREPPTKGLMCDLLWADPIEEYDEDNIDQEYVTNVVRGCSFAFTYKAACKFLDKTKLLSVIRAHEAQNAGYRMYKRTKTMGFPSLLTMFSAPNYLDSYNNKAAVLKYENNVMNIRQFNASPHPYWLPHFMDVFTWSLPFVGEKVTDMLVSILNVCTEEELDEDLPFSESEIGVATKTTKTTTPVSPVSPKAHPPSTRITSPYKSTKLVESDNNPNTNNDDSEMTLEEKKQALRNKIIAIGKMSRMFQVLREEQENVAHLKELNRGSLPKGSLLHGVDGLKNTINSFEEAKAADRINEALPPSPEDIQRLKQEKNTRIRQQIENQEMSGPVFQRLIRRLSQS
As to the kind of experiment: calcineurin pathway inhibitors in yeast reporter, dose response, S. cerevisiae, CDRE-lacZ, luminescence, secondary (AID 2388).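 Further: yeast reporter cells carrying a calcineurin-responsive lacZ construct stimulated with calcium chloride; luminescent beta-galactosidase reporter signal in whole cells rather than isolated phosphatase activity; potency for inhibition where a drop in reporter signal means calcineurin blockade.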 It counts as functional, cell-based.

In assay [6] the target is ATP-dependent molecular chaperone HSP82 (Candida albicans (strain WO-1) (Yeast), UniProt C4YTQ8). As to the kind of experiment: loss of DOC-induced GRE-beta-galactosidase reporter signal, dose response, Hsp90 inhibitor project, S. cerevisiae, luminescence (AID 2400).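 Further: beta-galactosidase luminescence from glucocorticoid response element reporter as proxy for Hsp90 function; inhibitor potency where signal loss means Hsp90 inhibition.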 It counts as functional, cell-based.
A further assay addresses Beta-galactosidase (Escherichia coli, UniProt Q8VNN2). As to the kind of experiment: PubChem AID 485352. It counts as functional.
Assay [7] addresses T3, Type-1 angiotensin II receptor (Homo sapiens, UniProt P30556).
T3 sequence (P30556 whole entry): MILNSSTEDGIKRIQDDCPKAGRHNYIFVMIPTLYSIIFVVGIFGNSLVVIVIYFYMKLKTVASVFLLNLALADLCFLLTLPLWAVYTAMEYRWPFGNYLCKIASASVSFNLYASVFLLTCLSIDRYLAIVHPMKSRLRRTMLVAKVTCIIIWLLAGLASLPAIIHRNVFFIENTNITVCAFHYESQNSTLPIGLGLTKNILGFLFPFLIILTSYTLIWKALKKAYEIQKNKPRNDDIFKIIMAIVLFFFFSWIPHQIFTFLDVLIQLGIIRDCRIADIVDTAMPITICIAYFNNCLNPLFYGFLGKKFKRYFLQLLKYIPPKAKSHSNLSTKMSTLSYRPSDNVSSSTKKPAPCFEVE
As to the kind of experiment: AT1 receptor antagonists, dose response, selectivity assay for APJ receptor antagonist project, cell-based, uHTS hits (AID 463214).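 Further: antagonist potency against angiotensin II stimulated AT1 response.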 It counts as functional.

The target of the next assay is T4, Caspase-3 (Homo sapiens, UniProt P42574).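 Further: Dose-response selectivity test against caspase-3 for candidate inhibitors of sentrin-specific proteases (SENPs).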
T4 sequence (P42574 whole entry): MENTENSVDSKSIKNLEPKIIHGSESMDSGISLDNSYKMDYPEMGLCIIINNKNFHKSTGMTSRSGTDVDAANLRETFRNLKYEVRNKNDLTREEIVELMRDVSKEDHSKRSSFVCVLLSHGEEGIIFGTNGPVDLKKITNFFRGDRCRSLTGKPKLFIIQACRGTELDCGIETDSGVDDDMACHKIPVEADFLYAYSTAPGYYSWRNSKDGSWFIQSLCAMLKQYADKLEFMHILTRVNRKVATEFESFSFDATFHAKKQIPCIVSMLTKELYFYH
It counts as functional.

Assay [8] concerns the target T5, Sentrin-specific protease 7 (Homo sapiens, UniProt Q9BQF6).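 Further: Luminescence-based dose-response confirmation of ultra-high-throughput screening hits, measuring inhibition of SENP7.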
T5 sequence (Q9BQF6 whole entry): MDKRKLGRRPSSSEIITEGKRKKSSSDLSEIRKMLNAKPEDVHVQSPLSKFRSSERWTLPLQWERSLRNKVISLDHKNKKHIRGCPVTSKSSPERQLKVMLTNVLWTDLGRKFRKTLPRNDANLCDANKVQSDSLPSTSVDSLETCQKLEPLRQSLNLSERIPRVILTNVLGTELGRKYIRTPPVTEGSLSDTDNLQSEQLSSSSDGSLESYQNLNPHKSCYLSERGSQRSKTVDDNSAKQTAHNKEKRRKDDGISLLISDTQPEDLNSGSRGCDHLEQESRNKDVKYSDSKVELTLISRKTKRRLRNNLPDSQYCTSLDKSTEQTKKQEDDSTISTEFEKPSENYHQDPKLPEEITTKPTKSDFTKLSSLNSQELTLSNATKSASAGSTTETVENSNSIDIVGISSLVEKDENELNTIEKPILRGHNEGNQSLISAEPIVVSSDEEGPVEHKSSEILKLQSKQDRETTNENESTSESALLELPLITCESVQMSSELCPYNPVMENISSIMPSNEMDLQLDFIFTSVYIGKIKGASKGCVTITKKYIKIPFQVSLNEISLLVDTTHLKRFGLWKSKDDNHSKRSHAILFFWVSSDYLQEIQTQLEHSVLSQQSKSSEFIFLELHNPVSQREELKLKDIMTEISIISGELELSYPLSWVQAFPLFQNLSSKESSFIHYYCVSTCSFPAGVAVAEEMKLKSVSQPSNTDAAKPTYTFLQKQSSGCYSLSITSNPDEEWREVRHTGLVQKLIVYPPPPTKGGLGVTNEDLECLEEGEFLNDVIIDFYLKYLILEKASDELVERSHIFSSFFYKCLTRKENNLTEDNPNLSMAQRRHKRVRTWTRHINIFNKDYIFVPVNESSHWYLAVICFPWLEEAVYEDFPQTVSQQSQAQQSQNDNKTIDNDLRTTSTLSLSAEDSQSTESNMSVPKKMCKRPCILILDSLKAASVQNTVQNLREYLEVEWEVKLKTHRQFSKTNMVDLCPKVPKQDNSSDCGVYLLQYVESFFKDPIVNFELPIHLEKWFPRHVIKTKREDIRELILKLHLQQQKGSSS
Format: functional.

Assay [9] addresses T6, Sentrin-specific protease 6 (Homo sapiens, UniProt Q9GZR1).
T6 sequence (Q9GZR1 whole entry): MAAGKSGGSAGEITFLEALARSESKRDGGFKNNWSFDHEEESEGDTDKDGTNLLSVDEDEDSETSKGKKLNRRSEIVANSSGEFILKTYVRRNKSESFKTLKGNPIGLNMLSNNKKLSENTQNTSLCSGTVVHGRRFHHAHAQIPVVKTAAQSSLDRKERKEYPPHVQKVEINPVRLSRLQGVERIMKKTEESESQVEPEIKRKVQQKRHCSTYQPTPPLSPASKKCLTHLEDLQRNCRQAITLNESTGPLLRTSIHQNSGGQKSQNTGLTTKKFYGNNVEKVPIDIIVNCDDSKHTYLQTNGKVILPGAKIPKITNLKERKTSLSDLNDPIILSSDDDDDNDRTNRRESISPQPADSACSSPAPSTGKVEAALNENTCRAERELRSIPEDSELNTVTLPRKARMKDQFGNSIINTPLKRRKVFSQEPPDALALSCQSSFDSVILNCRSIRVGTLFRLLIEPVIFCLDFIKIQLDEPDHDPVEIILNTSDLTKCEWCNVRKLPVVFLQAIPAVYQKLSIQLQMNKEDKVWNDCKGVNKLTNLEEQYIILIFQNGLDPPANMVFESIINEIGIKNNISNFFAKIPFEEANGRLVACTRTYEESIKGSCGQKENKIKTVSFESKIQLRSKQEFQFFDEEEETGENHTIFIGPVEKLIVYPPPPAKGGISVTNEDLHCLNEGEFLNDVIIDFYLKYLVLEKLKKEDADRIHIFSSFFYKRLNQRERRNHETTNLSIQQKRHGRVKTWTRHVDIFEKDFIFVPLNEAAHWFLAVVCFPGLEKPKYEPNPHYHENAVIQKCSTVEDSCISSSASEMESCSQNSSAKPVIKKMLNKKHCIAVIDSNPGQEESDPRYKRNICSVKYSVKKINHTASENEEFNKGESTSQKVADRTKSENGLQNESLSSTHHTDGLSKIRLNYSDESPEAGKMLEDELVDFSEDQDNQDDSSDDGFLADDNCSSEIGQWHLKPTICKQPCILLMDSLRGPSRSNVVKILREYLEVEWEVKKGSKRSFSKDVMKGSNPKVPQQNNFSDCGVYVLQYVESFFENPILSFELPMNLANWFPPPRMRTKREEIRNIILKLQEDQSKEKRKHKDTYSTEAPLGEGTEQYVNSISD
It counts as functional.

Assay [10] deals with T7, Sentrin-specific protease 8 (Homo sapiens, UniProt Q96LD8).
T7 sequence (Q96LD8 whole entry): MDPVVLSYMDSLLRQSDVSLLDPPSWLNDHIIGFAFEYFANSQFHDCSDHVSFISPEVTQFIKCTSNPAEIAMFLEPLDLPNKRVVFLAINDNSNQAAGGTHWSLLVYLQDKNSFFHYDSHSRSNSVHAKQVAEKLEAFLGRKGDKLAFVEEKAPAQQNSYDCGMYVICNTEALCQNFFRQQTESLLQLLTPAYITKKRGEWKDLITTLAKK
It counts as functional.

The test system of a further assay is HeLa. Put plainly: HeLa cell cytotoxicity, dose response, cytotoxicity control for MITF activator project, CellTiter-Glo luminescence, cherry-pick samples (AID 540259). The following applies: Homo sapiens. It counts as functional, cell-based.
In assay [11] the target is Voltage-gated inwardly rectifying potassium channel KCNH2 (Homo sapiens, UniProt Q12809). The note with it: Potency.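 Further: confirmatory quantitative high-throughput screen measuring inhibition of hERG channel activity.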
Chain of Voltage-gated inwardly rectifying potassium channel KCNH2 (Q12809 whole entry): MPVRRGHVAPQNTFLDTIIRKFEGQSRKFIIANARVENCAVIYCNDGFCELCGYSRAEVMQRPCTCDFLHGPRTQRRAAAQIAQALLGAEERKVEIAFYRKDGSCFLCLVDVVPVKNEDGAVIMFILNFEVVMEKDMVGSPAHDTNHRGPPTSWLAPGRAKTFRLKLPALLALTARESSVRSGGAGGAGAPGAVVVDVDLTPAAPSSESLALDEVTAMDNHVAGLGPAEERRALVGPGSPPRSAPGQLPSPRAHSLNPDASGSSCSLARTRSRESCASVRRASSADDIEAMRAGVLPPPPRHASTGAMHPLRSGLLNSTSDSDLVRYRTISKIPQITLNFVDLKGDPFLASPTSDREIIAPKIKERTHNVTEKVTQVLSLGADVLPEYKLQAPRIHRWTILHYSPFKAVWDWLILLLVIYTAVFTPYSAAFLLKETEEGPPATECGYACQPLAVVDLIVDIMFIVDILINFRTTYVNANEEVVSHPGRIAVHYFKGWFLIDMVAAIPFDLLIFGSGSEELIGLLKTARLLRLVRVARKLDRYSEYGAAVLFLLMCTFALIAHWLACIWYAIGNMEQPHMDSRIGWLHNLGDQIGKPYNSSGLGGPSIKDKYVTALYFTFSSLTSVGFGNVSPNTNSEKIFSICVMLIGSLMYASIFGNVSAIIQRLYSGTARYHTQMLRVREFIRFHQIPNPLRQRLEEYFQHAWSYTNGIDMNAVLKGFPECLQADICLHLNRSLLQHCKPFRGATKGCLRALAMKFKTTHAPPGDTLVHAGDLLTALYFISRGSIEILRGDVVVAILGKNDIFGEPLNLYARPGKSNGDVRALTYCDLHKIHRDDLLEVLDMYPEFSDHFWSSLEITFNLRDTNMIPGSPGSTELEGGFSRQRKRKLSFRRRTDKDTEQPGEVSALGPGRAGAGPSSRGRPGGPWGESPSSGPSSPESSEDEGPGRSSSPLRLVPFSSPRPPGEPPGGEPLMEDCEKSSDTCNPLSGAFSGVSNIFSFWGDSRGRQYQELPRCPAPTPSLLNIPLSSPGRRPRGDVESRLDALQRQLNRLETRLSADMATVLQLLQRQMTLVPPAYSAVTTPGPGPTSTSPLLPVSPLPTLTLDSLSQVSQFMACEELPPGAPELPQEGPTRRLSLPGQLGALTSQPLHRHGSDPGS

Chain of Beta-galactosidase (Q8VNN2 whole entry): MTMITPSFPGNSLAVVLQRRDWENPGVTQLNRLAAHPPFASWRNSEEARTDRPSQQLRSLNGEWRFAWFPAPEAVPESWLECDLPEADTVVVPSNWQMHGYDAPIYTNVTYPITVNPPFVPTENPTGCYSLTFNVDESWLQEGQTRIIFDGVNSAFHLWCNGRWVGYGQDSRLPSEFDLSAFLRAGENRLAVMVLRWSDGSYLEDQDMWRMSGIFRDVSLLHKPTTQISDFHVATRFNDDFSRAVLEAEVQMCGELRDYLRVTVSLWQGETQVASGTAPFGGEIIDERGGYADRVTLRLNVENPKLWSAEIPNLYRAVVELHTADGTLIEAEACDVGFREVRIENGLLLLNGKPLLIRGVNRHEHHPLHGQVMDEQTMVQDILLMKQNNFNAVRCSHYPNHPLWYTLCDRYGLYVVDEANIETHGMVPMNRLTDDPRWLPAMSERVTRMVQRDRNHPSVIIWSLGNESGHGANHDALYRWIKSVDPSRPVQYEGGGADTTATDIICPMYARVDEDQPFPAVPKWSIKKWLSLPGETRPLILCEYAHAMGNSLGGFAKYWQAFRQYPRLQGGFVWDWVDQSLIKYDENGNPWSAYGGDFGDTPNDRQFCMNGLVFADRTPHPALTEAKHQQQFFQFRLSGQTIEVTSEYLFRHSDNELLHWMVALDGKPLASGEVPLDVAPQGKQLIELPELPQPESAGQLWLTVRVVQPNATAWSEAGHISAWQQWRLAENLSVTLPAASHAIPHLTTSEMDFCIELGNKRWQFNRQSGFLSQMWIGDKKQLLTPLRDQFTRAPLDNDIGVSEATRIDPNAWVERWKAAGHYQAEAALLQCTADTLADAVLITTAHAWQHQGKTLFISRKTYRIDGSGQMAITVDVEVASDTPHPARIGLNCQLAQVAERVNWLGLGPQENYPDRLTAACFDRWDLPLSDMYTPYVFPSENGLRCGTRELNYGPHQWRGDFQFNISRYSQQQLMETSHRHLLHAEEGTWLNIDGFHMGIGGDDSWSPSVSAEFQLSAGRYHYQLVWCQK
Chain of ATP-dependent molecular chaperone HSP82 (C4YTQ8 whole entry): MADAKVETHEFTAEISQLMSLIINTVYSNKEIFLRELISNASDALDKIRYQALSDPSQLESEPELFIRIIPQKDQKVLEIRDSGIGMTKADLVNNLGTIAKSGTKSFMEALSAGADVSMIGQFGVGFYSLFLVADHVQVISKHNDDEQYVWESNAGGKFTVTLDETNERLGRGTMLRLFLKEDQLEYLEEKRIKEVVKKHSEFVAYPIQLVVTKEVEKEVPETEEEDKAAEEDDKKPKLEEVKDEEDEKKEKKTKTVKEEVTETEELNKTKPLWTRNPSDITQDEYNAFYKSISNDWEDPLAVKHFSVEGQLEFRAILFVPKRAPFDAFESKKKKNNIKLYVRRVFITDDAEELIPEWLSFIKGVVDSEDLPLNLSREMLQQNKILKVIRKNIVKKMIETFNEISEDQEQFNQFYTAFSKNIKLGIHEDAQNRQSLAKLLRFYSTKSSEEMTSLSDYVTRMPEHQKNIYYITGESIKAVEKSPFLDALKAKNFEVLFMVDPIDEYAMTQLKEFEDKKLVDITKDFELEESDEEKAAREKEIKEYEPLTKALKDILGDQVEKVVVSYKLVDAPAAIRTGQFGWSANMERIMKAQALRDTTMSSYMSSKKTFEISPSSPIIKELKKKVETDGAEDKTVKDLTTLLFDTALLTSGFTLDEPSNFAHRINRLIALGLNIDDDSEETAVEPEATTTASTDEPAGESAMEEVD

Take `COc1ccccc1N1CCN(C(S)=Nc2ccc3nc(N4CCOCC4)cc(C)c3c2)CC1`: the cytotoxic concentration (CC50) in [1] was 39.1 µM (active); in the assay on Vero, > 40 µM (active).

For the molecule `CCOc1ccc(-n2c(=O)[nH]c3sc4c(c3c2=O)CCCC4)cc1`, the IC50 (with HEK293; in assay [2]) was > 67.6 µM (inactive) in each case.

Regarding `Cc1nn(-c2ccccc2)c(C)c1C(=O)OC/C(O)=C(\C#N)c1nc2ccccc2[nH]1`, the half-maximal effective concentration (EC50) in [3] was > 150 µM (inconclusive); in assay [4] it was 0.764 µM (active); in assay [5] it was > 180 µM (inactive); in assay [6], > 150 µM (inactive).

Take `O=C(CNc1ccccc1C(=O)O)c1ccccc1`: the EC50 at Beta-galactosidase is > 40 µM (inactive). The IC50 in [7] is 7.51 µM (active).

On to `O=C(CN1C(=O)C2C3C=CC(C3)C2C1=O)OCC(=O)c1ccc(Cl)c([N+](=O)[O-])c1` (stereo unspecified), for which the EC50 at Beta-galactosidase was > 40 µM (inactive). Besides, in assay [7], the concentration for half-maximal inhibition (IC50) is 14.3 µM (active).

As to `CCOC(=O)c1nn(-c2ccc(Cl)cc2)cc1O`, the IC50 (in the assay with HEK293; in assay [2]) was > 67.5 µM (inactive) in each case.

With `C/C(=N\NC(=O)c1nn(C)cc1Br)c1ccncc1`, the IC50 (in the assay on HEK293; in assay [2]) was > 67.6 µM (inactive) throughout.

Turning to `Cc1ccc2c(c1N)C(=O)c1ccccc1C2=O`, the half-inhibitory concentration (IC50) was 11.8 µM (active) at Caspase-3, 4.33 µM (active) in assay [8], 42.3 µM (active) in assay [9] and > 100 µM (inactive) in assay [10]. Moreover, the half-maximal activity concentration (AC50) in the assay on HeLa is 36 µM (active); in assay [11], 35.5 µM (inconclusive).

For `COc1ccc(-n2nc(C(=O)NCC(=O)NCCC3=CCCCC3)c3ccccc3c2=O)c(OC)c1`, the EC50 is > 150 µM (inactive) in [3], 0.469 µM (active) in assay [4], > 180 µM (inactive) in assay [5] and > 150 µM (inactive) in assay [6].
